# In ChEMBL document CHEMBL3885861, “Open TG-GATES”:
# Species: Rattus norvegicus
# Test: Open TG-GATES - Regimen: Single
# Assay type: toxicity, organism-based, Sprague-Dawley
# Design: regimen Single, gender Male, age 6 weeks
# Details: in vivo, po, 0 mg/kg, route gavage, dose level Control; for APTT / Bas / Eos / Fbg / Hb / Ht / Lym / MCH / MCHC / MCV / Mono / Neu / PT / Plat / RBC / Ret / WBC: tissue Blood; for KIDNEY_L / KIDNEY_R / KIDNEY_TOTAL: tissue Kidney; for LIVER: tissue Liver; for A/G / ALP / ALT / AST / BUN / CRE / Ca / Cl / DBIL / GLC / IP / K / LDH / Na / PL / RALB / TBIL / TC / TG / TP / gamma-GTP: tissue Plasma
structure (smiles),measurement,setting,value
Clc1c(Cl)c(Cl)c(Cl)c(Cl)c1Cl [PERCHLOROBENZENE],TERMINAL_BW,3 h,219.4 g
same,APTT,3 h,19.3 s
same,Bas,3 h,0.2%
same,Eos,3 h,0.8%
same,Fbg,3 h,218.8 mg/dL
same,Hb,3 h,13.5 g/dL
same,Ht,3 h,38.6%
same,Lym,3 h,75.4%
same,MCH,3 h,21.1 pg
same,MCHC,3 h,34.9%
same,MCV,3 h,60.3 fL
same,Mono,3 h,3.2%
same,Neu,3 h,18.6%
same,PT,3 h,11.9 s
same,Plat,3 h,122 x10_4/uL
same,RBC,3 h,639.6 x10_4/ul
same,Ret,3 h,7.1%
same,WBC,3 h,76.5 x10_2/uL
same,KIDNEY_L,3 h,1 g
same,KIDNEY_R,3 h,1 g
same,KIDNEY_TOTAL,3 h,2 g
same,LIVER,3 h,9.9 g
same,A/G,3 h,1.7
same,ALP,3 h,1008.2 IU/L
same,ALT,3 h,42.8 IU/L
same,AST,3 h,78 IU/L
same,BUN,3 h,11.4 mg/dL
same,CRE,3 h,0.4 mg/dL
same,Ca,3 h,10.9 mg/dL
same,Cl,3 h,103.4 meq/L
same,DBIL,3 h,0.07 mg/dL
same,GLC,3 h,187.2 mg/dL
same,IP,3 h,8.4 mg/dL
same,K,3 h,4 meq/L
same,LDH,3 h,216.2 IU/L
same,Na,3 h,140.6 meq/L
same,PL,3 h,156.8 mg/dL
same,RALB,3 h,3.5 g/dL
same,TBIL,3 h,0.1 mg/dL
same,TC,3 h,76.8 mg/dL
same,TG,3 h,103.4 mg/dL
same,TP,3 h,5.5 g/dL
same,gamma-GTP,3 h,1 IU/L
same,TERMINAL_BW,6 h,219.4 g
same,APTT,6 h,19.5 s
same,Bas,6 h,0.2%
same,Eos,6 h,0.6%
same,Fbg,6 h,230.4 mg/dL
same,Hb,6 h,13.5 g/dL
same,Ht,6 h,38.4%
same,Lym,6 h,79.6%
same,MCH,6 h,21.7 pg
same,MCHC,6 h,35.3%
same,MCV,6 h,61.5 fL
same,Mono,6 h,3.2%
same,Neu,6 h,14.8%
same,PT,6 h,11.7 s
same,Plat,6 h,134.1 x10_4/uL
same,RBC,6 h,624 x10_4/ul
same,Ret,6 h,7.2%
same,WBC,6 h,106.3 x10_2/uL
same,KIDNEY_L,6 h,1 g
same,KIDNEY_R,6 h,1 g
same,KIDNEY_TOTAL,6 h,2 g
same,LIVER,6 h,9.6 g
same,A/G,6 h,1.5
same,ALP,6 h,958.2 IU/L
same,ALT,6 h,32 IU/L
same,AST,6 h,70.6 IU/L
same,BUN,6 h,9.2 mg/dL
same,CRE,6 h,0.4 mg/dL
same,Ca,6 h,10.6 mg/dL
same,Cl,6 h,102.6 meq/L
same,DBIL,6 h,0.06 mg/dL
same,GLC,6 h,192.8 mg/dL
same,IP,6 h,9.4 mg/dL
same,K,6 h,4.2 meq/L
same,LDH,6 h,216.4 IU/L
same,Na,6 h,140.2 meq/L
same,PL,6 h,149.6 mg/dL
same,RALB,6 h,3.3 g/dL
same,TBIL,6 h,0.1 mg/dL
same,TC,6 h,77.6 mg/dL
same,TG,6 h,71.2 mg/dL
same,TP,6 h,5.6 g/dL
same,gamma-GTP,6 h,1.2 IU/L
